Assay results published in patent US20240384268A1, “Oligonucleotides” (Hudson Institute of Medical Research, priority 2021, published 2024).
In the oligonucleotide strings, read from the 5' end, every base follows the letter of its sugar. An asterisk marks phosphorothioate; unmarked linkages are phosphodiester. Other units and linkages are bracketed, terminal groups are in braces. A string of capitals states the bases alone. d = 2'-deoxy (DNA); m = 2'-O-methyl

Target: T1, human TLR7 (Homo sapiens, UniProt Q9NYK1)
T1 construct: HA; host or cells: 293XL-hTLR7-HA (HEK293)
T1 sequence (Q9NYK1 27-1049): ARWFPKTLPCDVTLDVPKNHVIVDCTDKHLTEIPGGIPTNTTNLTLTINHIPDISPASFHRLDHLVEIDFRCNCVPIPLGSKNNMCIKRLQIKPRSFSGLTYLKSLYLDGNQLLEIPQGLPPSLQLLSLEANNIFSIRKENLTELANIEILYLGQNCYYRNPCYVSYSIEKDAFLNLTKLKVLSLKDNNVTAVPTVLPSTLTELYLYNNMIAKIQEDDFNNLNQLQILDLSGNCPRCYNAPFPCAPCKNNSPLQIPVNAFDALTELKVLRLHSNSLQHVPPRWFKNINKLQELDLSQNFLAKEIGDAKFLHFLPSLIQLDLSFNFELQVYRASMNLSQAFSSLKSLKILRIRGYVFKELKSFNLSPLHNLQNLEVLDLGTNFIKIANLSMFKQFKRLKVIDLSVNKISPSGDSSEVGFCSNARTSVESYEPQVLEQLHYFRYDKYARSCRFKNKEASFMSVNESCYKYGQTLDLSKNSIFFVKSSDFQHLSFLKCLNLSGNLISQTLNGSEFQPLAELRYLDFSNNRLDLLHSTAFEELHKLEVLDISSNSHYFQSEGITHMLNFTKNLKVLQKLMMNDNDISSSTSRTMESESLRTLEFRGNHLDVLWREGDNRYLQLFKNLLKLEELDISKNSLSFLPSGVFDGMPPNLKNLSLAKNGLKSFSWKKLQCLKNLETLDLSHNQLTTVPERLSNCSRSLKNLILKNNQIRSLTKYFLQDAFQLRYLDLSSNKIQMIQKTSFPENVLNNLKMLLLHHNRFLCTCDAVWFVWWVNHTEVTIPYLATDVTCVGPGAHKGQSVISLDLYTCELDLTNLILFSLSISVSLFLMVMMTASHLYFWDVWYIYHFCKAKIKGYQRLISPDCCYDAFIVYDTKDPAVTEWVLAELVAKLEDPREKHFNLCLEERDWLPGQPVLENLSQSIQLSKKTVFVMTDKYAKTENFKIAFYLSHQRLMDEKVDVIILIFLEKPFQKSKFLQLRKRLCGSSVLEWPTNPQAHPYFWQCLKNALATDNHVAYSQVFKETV
Assay: HEK-TLR7 NF-κB-luciferase reporter, R848 stimulation
Type: cell-based
Details: for TLR7-100 nM: averaged NF-κB-Luciferase relative to R848: HEK-TLR7, 100 nM ASO, percentage of R848 without ASO (Alharbi et al., 2020); for TLR7 100 nM: MOE-modified ASO at 100 nM; for TLR7 100 nM / TLR7 500 nM: averaged NF-κB-Luciferase relative to R848 condition; for TLR7 500 nM: MOE-modified ASO at 500 nM

Substance	TLR7-100 nM: averaged NF-κB-Luciferase relative to R848	TLR7 100 nM	TLR7 500 nM
mG*mC*mA*mA*mG*G*C*A*G*A*G*A*A*A*C*mU*mC*mC*mA*mG (GCAAGGCAGAGAAACUCCAG; sugars from the 5' end m5 d10 m5, all phosphorothioate, methylation of C not given here) [[LINC-PINT]1315 KL]	19,99%		
mC*mC*mA*mU*mC*C*C*T*T*C*T*G*C*T*G*mC*mC*mA*mA*mG (mC*mC*mA*mU*mC*dC*dC*dT*dT*dC*dT*dG*dC*dT*dG*mC*mC*mA*mA*mG; antisense) [ILING-PINT199]	52.57%		
mU*mU*mU*mG*mA*A*A*T*T*C*A*G*A*A*G*mA*mU*mU*mU*mG (mU*mU*mU*mG*mA*dA*dA*dT*dT*dC*dA*dG*dA*dA*dG*mA*mU*mU*mU*mG) [[LINC PINT|2690]	35.07%		
mG*mA*mU*mG*mG*T*T*C*C*A*G*T*C*C*C*mU*mC*mU*mU*mC (GAUGGTTCCAGTCCCUCUUC; antisense; sugars from the 5' end m5 d10 m5, all phosphorothioate, methylation of C not given here) [[LINC-PINT]1497.1]	22.32%		
mU*mC*mU*mG*mG*T*C*C*C*A*T*C*C*C*T*mU*mC*mU*mG*mC (UCUGGTCCCATCCCTUCUGC; antisense; sugars from the 5' end m5 d10 m5, all phosphorothioate, methylation of C not given here) [[LINC-PINT]106]	29.42%		
mU*mG*mU*mU*mU*C*C*C*C*G*G*A*G*A*G*mC*mA*mA*mU*mG (UGUUUCCCCGGAGAGCAAUG; antisense; sugars from the 5' end m5 d10 m5, all phosphorothioate, methylation of C not given here) [[LINC-PINT]501 KL]	30.90%		
mU*mU*mA*mA*mA*T*A*A*T*C*T*A*G*T*T*mU*mG*mA*mA*mG (UUAAATAATCTAGTTUGAAG; sugars from the 5' end m5 d10 m5, all phosphorothioate, methylation of C not given here) [[CDKN2B-AS1]132]	25.66%		
GCTGACAAAGATTCACTGGT (antisense; 2'-MOE modified, pattern not given here) [HPRT-1353 MOE]		0.375	0.190
mU*mG*mA*mC*mA*A*A*A*C*A*A*T*A*A*T*mA*mA*mC*mA*mG (mU*mG*mA*mC*mA*dA*dA*dA*dC*dA*dA*dT*dA*dA*dT*mA*mA*mC*mA*mG) [[LINC-PINT]384]	36.68%		
mA*mA*mA*mU*mG*T*C*C*T*G*G*C*C*C*T*mC*mA*mC*mU*mG (mA*mA*mA*mU*mG*dT*dC*dC*dT*dG*dG*dC*dC*dC*dT*mC*mA*mC*mU*mG) [[LINC-PINT]148.1]	46.45%		
mG*mU*mC*mC*mG*T*A*C*C*T*C*C*A*C*C*mC″mA*mC*mC*mG [[LINC-PINT]727.1]	22.79%		
mU*mG*mU*mG*mA*A*A*A*G*A*T*T*A*T*C*mU*mU*mC*mU*mU (UGUGAAAAGATTATCUUCUU; sugars from the 5' end m5 d10 m5, all phosphorothioate, methylation of C not given here) [[CDKN2B-AS1]2137]	34.51%		
TGGGTTACGGCTCAGTATGG (antisense; 2'-MOE modified, pattern not given here) [CAMSAP1-4295 MOE]		0.427	0.167
mA*mA*mA*mA*mU*A*A*G*G*G*G*A*A*T*A*mG*mG*mG*mG*mA (mA*mA*mA*mA*mU*dA*dA*dG*dG*dG*dG*dA*dA*dT*dA*mG*mG*mG*mG*mA; antisense) [[CDKN2B-AS1]79]	68.45%		
mG*mC*mG*mU*mA*G*T*T*T*C*T*C*T*T*C*mC*mU*mC*mC*mC (GCGUAGTTTCTCTTCCUCCC; sugars from the 5' end m5 d10 m5, all phosphorothioate, methylation of C not given here) [[LINC-PINT]935 KL]	27.23%		
mG*mU*mU*mC*mA*G*T*C*A*G*A*T*C*G*C*mU*mG*mG*mG*mA (mG*mU*mU*mC*mA*dG*dT*dC*dA*dG*dA*dT*dC*dG*dC*mU*mG*mG*mG*mA) [[LINC-PINT]412 KL]	17.46%		
mU*mU*mA*mG*mC*T*C*C*T*T*G*C*C*T*C*mG*mU*mU*mC*mC (mU*mU*mA*mG*mC*dT*dC*dC*dT*dT*dG*dC*dC*dT*dC*mG*mU*mU*mC*mC; antisense) [[LINC-PINT] 1222]	31.67%		
mC*mU*mU*mU*mA*T*A*T*T*A*C*A*A*A*G*mC*mU*mA*mC*mU (mC*mU*mU*mU*mA*dT*dA*dT*dT*dA*dC*dA*dA*dA*dG*mC*mU*mA*mC*mU; antisense) [[LINC-PINT]2755]	54.83%		
mC*mC*mC*mU*mU*C*T*C*T*C*T*G*G*T*C*mC*mC*mA*mU*mC (mC*mC*mC*mU*mU*dC*dT*dC*dT*dC*dT*dG*dG*dT*dC*mC*mC*mA*mU*mC; antisense) [[LINC-PINT]114]	49.59%		
mU*mU*mG*mG*mC*C*T*G*T*G*G*A*T*G*C*mU*mU*mU*mG*mU (mU*mU*mG*mG*mC*dC*dT*dG*dT*dG*dG*dA*dT*dG*dC*mU*mU*mU*mG*mU) [[LINC-PINT]2673.1]	21.43%		
